Measured values as given in patent US20230395193A1 (priority 2020, published 2023).

Tested on: SARS-CoV-1 (Urbani)
Assay type: cell-based
Conditions: not given

Compound	Antiviral activity against SARS-CoV-1 (in words)
CCCCc1oc2ccccc2c1C(=O)c1cc(I)c(OCCN(CC)CC)c(I)c1 [amiodarone]	inhibited

Tested on: canine coronavirus
Conditions: previous study (Amici et al. 2006); cited from earlier work

Compound	Efficacy against canine coronavirus in vivo (in words)
COc1ccc2c(c1)c(CC(=O)O)c(C)n2C(=O)c1ccc(Cl)cc1 [indomethacin]	showed efficacy

Tested on: SARS-CoV-2
Assay type: cell-based
Conditions: not given

Compound	Antiviral activity against SARS-CoV-2 (in words)
CCCCc1oc2ccccc2c1C(=O)c1cc(I)c(OCCN(CC)CC)c(I)c1 [amiodarone]	inhibited

Tested on: SARS-CoV-1, MERS-CoV and SARS-CoV-2 proteins in HEK293T cells
Design: species or system human
Conditions: not given

Compound	MIST_MERS	MIST_SARS1	MIST_SARS2	Saint_MERS	Saint_SARS1	Saint_SARS2
E-Q9UBS3	0.9729	0	0	0.98	0	0
M-Q96HW7	0	0.8124	0.9433	0	0.33	0.65
E-Q9ULP9	0	0.9165	0	0	0.97	0
M-Q8TEM1	0.7258	0.02986	0	1	0	0
M-Q9NVH2	0	0.8943	0.8082	0	0.97	0.64
E-Q8WVM8	0.7214	0.3063	0	0.95	0	0

Tested on: SARS-CoV-2
Assay type: cell-based
Conditions: not given
Remark: another data set of the same source

Compound	Inhibition of SARS-CoV-2 in vitro (in words)
COc1ccc2c(c1)c(CC(=O)O)c(C)n2C(=O)c1ccc(Cl)cc1 [indomethacin]	did not inhibit SARS-CoV-2 in vitro at reasonable antiviral concentrations

Tested on: SARS-CoV-1
Conditions: cited from earlier work

Compound	Inhibition of SARS-CoV-1 in vitro (in words)
COc1ccc2c(c1)c(CC(=O)O)c(C)n2C(=O)c1ccc(Cl)cc1 [indomethacin]	similarly high levels of the drug were needed for inhibition
